Key:
AID protein = molecular target: T1, AID protein (Mus musculus, UniProt Q9WVE0); test: Inhibition of the cytidine deaminase activity of the AID-GST fusion protein; assay type: biochemical; details: for inhibition of the cytidine deaminase activity of AID protein: 20 mM printed for 1,10-o-phenanthroline, both isomers tested 0 to 20 mM; for inhibition of the cytidine deaminase activity of AID protein (in words): zinc chelator and inactive isomer
T1 construct: a full length AID cDNA was expressed as a fusion protein with glutathione S-transferase (GST); made in house; host or cells: E. coli DH5alpha
Procedure: The purified AID-GST fusion protein prepared in the above (2, 4, 6, 8, 10, 20, 40, 60, 100, 200, 300, 400, and 600 ng) was incubated in the buffer (pH 7.5, the total amount 10 μl) containing 45 mM Tris with 3.3 μCi [^3H] deoxycytidine (24.8 Ci/mmol, DuPont) and 250 μM cytidine for 2 to 4 hours. The reaction was terminated by adding deoxycytidine (2 μl of 10 μg/ml) and deoxyuridine (2 μl of 10 μg/ml). Insoluble substances were removed by centrifugation, and the reaction mixture (4 μl) was subjected to the polyethylene imine-cellulose thin layer chromatography plate (VWR). The plate was developed in isopropyl alcohol/10% HCl (7:2 v/v). The plate was exposed to ultraviolet light (254 nm) for visualization and bands corresponding to deoxycytidine and deoxyuridine were collected, and added to Ultima Gold scintillation solution to be quantified by liquid scintillation photometer (Packard)

[1] = test system: mouse B cell clone CH12F3-2; test: Production of looped-out circular DNA by class switch recombination (PCR, Southern hybridization); assay type: cell-based; details: cycloheximide 200 ng/ml, 6 hours, stimulation with IL-4, TGF-β, CD40L
Procedure: CH12F3-2 B cells, either stimulated by IL-4, TGF-β, and CD40L or unstimulated, were cultured for 6 hours in the presence or absence of cycloheximide (200 ng/ml) which is a protein synthesis inhibitor, respectively. Genomic DNA was extracted from each cell, and PCR was conducted with the DNA as a template following standard methods to amplify circular DNA including an Sμ sequence and an Sα sequence. PCR was conducted using pairs of primers, αF1 and […], or αF1 and […].
As a control, genomic DNA encoding glyceraldehyde-3-phosphate dehydrogenase (GAPDH) was amplified by PCR.
The PCR products were subjected to gel electrophoresis and ethidium bromide staining. FIG. 1(a) and FIG. 2(a) show the results.
To confirm the presence or absence of the amplification of a circular DNA including the looped-out S region, Southern hybridization was conducted against the PCR products using a mouse Sa region gene as a hybridization probe, according to standard methods (L. Sambrook E. F., Tom Maniatis., Second edition, Ed. Molecular Cloning (Nolan, C., Ed.) Cold Spring Harbor, 1989). A 1,155 bp DNA fragment obtained by digesting 10 kb EcoRI cleaved fragment IgH703 with Hind III and Earl was used as an Sα gene (Genbank #D11468, DNA No. 1993-3148) (J, Biol. Chem., Vol. 268, p. 4651-4665). FIGS. 1(b) and 2(b) show the results.

[2] = test system: AID mRNA in mouse B cell clone CH12F3-2; test: Cytokine-induced AID (23C9) mRNA expression, Northern blotting; assay type: cell-based; details: cycloheximide 200 ng/ml, 12 hours, IL-4, TGF-β, CD40L
Procedure: The degree of enhanced expression of the gene coding for a novel protein 23C9 in mouse B cell clone CH12F3-2 stimulated with IL-4, TGF-β and CD40L was analyzed according to the standard method (L. Sambrook, E. F., Tom Maniatis., Second edition, Ed. Molecular Cloning (Nolan, C., Ed.), Cold Spring Harbour, 1989) by Northern blotting.
Mouse B cell clone CH12F3-2 was cultured in the presence of one of the following regents for 12 hours. • (1) IL-4, TGF-β and CD40L only. • (2) Cycloheximide which is a protein synthesis inhibitor (200 ng/ml), only • (3) IL-4, TGF-β and CD40L as well as Cycloheximide (200 ng/ml)
Northern blotting was conducted against mRNA (10 μg for each group) obtained in the same manner as previously reported (Nucleic Acid Res., 26:911-918, 1998) from each group of treated cells using a radio-labeled cDNA fragment (1,020 bp) coding for a novel protein 23C9, obtained in the above Example, according to the standard method (L. Sambrook, E. F., Tom Maniatis., Second edition, Ed. Molecular Cloning (Nolan, C., Ed.), Cold Spring Harbour, 1989).
As a control experiment, Northern blotting was conducted for mRNA derived from B cell clone CH12F3-2 cultured without any one of the above cytokines, or cycloheximide.
The amount of mRNA to be electrophoresed was adjusted using the amount of mRNA for glyceraldehyde-3-phosphate dehydrogenase (GAPDH) as an index. […]

T1 sequence (Q9WVE0 whole entry, the tested form may be a part): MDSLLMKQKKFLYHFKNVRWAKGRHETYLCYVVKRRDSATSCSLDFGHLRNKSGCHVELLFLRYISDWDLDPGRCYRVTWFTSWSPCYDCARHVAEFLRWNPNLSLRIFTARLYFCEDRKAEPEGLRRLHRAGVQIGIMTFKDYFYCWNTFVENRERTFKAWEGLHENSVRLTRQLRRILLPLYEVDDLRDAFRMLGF

SMILES | inhibition of the cytidine deaminase activity of AID protein (AID protein) | inhibition of the cytidine deaminase activity of AID protein (in words) (AID protein) | production of looped-out DNA containing the Sα sequence with class switch recombination [1] | induction of AID mRNA expression by cytokines [2]
c1cnc2c(c1)ccc1ncccc12 [1,7-o-phenanthroline] | about 13% | weak inhibition | – | –
c1cnc2c(c1)ccc1cccnc12 [1,10-o-phenanthroline] | about 91% | inhibits | – | –
C[C@@H]1C[C@@H]([C@H](O)CC2CC(=O)NC(=O)C2)C(=O)[C@@H](C)C1 [cycloheximide] | – | – | inhibited | can be inhibited
